Here are results for 6 compounds from patent US10842852B2, “Methods of delivering a polypeptide molecule to Otx2 target cells using an Otx2 targeting peptide” (Centre National de la Recherche Scientifique, priority 2009, dated 2020).

Entries after “also recorded” stand apart in the source; their conditions may differ. Ends that are not written are not given here.

In data set [1] the test system is retinal ganglion neurons. The experiment in a line: Survival of retinal ganglion neurons after NMDA injection into the eye (Brn3A mRNA, quantitative RT-PCR). The class given is in vivo, C57 B16 mice. The following applies: mice, after 4 days. Here is the method:
C57 B16 mice received, in the right eye, 1 μl of injection buffer (PBS or 9‰ NaCl) containing either 1 mM of NMDA, or 1 mM of NMDA supplemented with 30 ng of the chimeric polypeptide, and in the left eye, the same volume of injection buffer, without additive.
The survival of the ganglion neurons was determined by measuring the level of expression of Brain 3A (Brn3A), a transcription factor which, in the retina, is specifically expressed in the ganglion neurons (Xiang et al., J. Neurosci., 15, 4762-4785, 1995).
After 4 days, the animals are sacrificed, the retinas are removed, and the mRNA is extracted therefrom.
The level of expression of Bm3A mRNA was determined by quantitative RT-PCR using the hypoxanthine phosphoribosyltransferase (HPRT) gene as reference gene, and the ratio between the expression of the Bm3A mRNA in the right eye and in the left eye was calculated.
The results are illustrated by FIG. 5. The additives used are indicated along the x-axis; the ratio between the amounts of Brn3A mRNA (standardized relative to the HPRT mRNA) in the right eye and in the left eye is indicated along the y-axis.

For data set [2], the system named is binding of AP-Nt-Otx2 to bipolar cells and ganglion cells. The experiment in a line: Antagonism of AP-Nt-Otx2 binding to sections of retinas by peptides. The following applies: 2 μg/ml of peptide. As for the experimental part:
In order to verify that the RK-Otx2 peptide indeed had the same binding specificity as AP-Nt-Otx2, the ability of the RK-Otx2 and AA-Otx2 polypeptides to antagonize the binding of AP-Nt-Otx2 was tested. The test for binding of AP-Nt-Otx2 to sections of retinas was carried out as described above, with the exception that the incubation of the supernatant containing AP-Nt-Otx2 was carried out in the presence of 2 μg/ml of the RK-Otx2 peptide or of the AA-Otx2 peptide.

Data set [3] deals with endogenous transfer of Otx2 to cells of the visual cortex. The experiment in a line: Infusion of peptides into the right visual cortex of adult mice, count of cells expressing Otx2. Particulars: for number of cells expressing Otx2: adult mice, 0.25 mg/ml, 1 μl/h for 7 days into right visual cortex, infused vs control hemisphere. It is filed as in vivo. Here is the method: For this purpose, the RK-Otx2 peptide (0.25 mg/ml), the AA-Otx2 peptide (0.25 mg/ml), or PBS buffer, combined with polysialic acid (0.25 mg/ml, in order to enable diffusion of the peptides and to avoid nonspecific binding thereof to neurons expressing polysialic acid at their surface), were slowly infused (1 μl/h) for 7 days into the right visual cortex of adult mice, using osmotic minipumps (Alzet 1003D, Alza) connected to stereotaxically implanted cannulas (Hensch et al., Science, 282, 1504-8, 1998; Fagiolini & Hensch, Nature, 404, 183-6, 2000). At the end of the infusion, the mice are perfused with 4% PFA, and brain sections (25 μm) are cut in order to study the localization of Otx2 and that of the RK-Otx2 peptide. Otx2 is visualized using a rat anti-Otx2 monoclonal antibody diluted to 1/200 (Sugiyama et al., Cell, 134, 508-20, 2008), followed by a donkey anti-rat antibody labeled with Alexa 488 (Molecular Probes), diluted to 1/2000. The RK-Otx2 peptide is visualized using streptavidin labeled with Cy5.
The cells expressing Otx2 were counted over a surface area of 700×350 μm encompassing layers I/II and IV of the binocular zone of the visual cortex.
It was verified, by Sytox green labeling, that the infusion had no effect in itself on the number of cells. In order to be sure that the decrease in the number of cells expressing Otx2 was not due to cell death, an infusion of this peptide was carried out according to the protocol described above, and the number of cells expressing Otx2 was measured 8 days after the end of the infusion.

The subject of data set [4] is binding of AP-Nt-Otx2 to its target cells of the cerebral cortex. The experiment in a line: Blocking of AP-Nt-Otx2 binding to cortical target cells on adult mouse brain sections. Particulars: whole Otx2 1 μg/ml, peptides 2 μg/ml. As for the experimental part:
The interaction, with the cells of the cerebral cortex, of the AP-Otx2, AP-Nt-Otx2, AP-Hd-Otx2 and AP-HdAA-Otx2 fusion proteins ([…] a variant of AP-Nt-Otx2 in which the RK amino acid doublet has been replaced with the AA doublet), alone (culture supernatant diluted to 1/20th) or in the presence of a whole Otx2 (1 μg/ml) or of the RK-Otx2 or AA-Otx2 peptides (2 μg/ml), was tested on cryostat sections of adult mouse brains, using the protocol described in example 1 above.

Data set [5] concerns retinal ganglion neurons. The following applies: previously shown, application PCT/FR 2009/000031; cited from earlier work.
In data set [6] the test system is retinal ganglion neurons (RGCs) and bipolar cells on sections of retina. The data set is described as follows: Binding test of AP fusion proteins and biotinylated peptides on sections of retina. The following applies: supernatants diluted to 1/20, 2 hours at room temperature, alkaline phosphatase detection. As for the experimental part: The sequences encoding the human Otx2 protein or encoding the fragments tested were cloned into the vector pAPtag-5 (GenHunter), in frame with the sequence encoding alkaline phosphatase. The various constructions carried out are represented diagrammatically in FIG. 1. HEK 293 cells cultured in culture dishes 10 cm in diameter were transfected with 10 μg of each of the vectors constructed, purified beforehand, using Lipofectamine 2000 (Invitrogen) according to the manufacturer's instructions. The transfected cells were incubated for 48 hours in DMEM/F12, supplemented with 10% of fetal bovine serum (FCS). The supernatant was collected, centrifuged at 100×g for 5 minutes and stored at −80° C. This supernatant is used, without purification, for testing the binding of the chimeric proteins on sections of retina. […]
Biotinylated peptides corresponding to various fragments of the N-terminal domain+homeodomain portion of Otx2 were synthesized and the binding thereof to sections of retina, prepared as described above, was tested. The incubation of the peptides with the sections of retina was carried out under the same conditions as those described above, and then the sections bearing the bound peptides were incubated with alkaline phosphatase-labeled streptavidin, and the alkaline phosphatase activity was detected as described above.

The subject of data set [7] is plasticity of the visual cortex. The experiment in a line: Ocular dominance plasticity after 4 days monocular deprivation, single-unit extracellular electrophysiology. It is filed as in vivo. The following applies: adult mice; for ocular dominance induced by monocular deprivation: 4 days monocular deprivation after treatment. As for the experimental part:
The RK-Otx2 peptide or the AA-Otx2 peptide was infused in adult mice (therefore after closing of the critical period of plasticity), as described in example 4 above. Chondroitinase-ABC, or the injection buffer (deionized water+0.1% BSA), were injected (0.4 μl for each injection) at 3 sites surrounding the visual cortex (AP lambda, LM 1.5 mm; AP lambda, 4.0 mm; AP+1.5 mm; LM 2.5 mm) at two different depths (300 and 500 μm).
After infusion of the peptides or injection of chondroitinase ABC, the mice are subjected to monocular deprivation for 4 days, and the responses to visual stimuli are then measured by single-unit extracellular electrophysiology. The electrophysiology recordings are carried out under nembutal/chlorprothixene anesthesia using standard techniques (Gordon & Stryker, J Neurosci, 16, 3274-86, 1996; Mataga et al., Neuron, 44, 1031-41, 2004). 5 to 7 single-unit recordings were carried out for each mouse, on both sides of the medial-lateral axis of the primary visual cortex, in order to cover the monocular zone and the binocular zone, and to avoid sampling biases. Cell dominance scores were assigned to the cell responses, using a 7-point classification system (Wiesel & Hubel, J Neurophysiol, 26, 978-93, 1963) (Gordon & Stryker, J Neurosci, 16, 3274-86, 1996). The ocular dominance in the binocular zone was calculated for each mouse according to a contralateral bias index (CBI), determined as follows:
(CBI): [(n1−n7)+⅔(n2−n6)+⅓(n3−n5)+N]/2N, where N=total number of cells and nx=number of cells corresponding to an ocular dominance score of x.
This weighted mean of the bias in favor of one or other eye can range from 0, for complete ipsilateral dominance, to 1, for complete contralateral dominance.

In data set [8] the test system is parvalbumin neurons of the visual cortex. The experiment in a line: WFA labeling and parvalbumin expression in visual cortex after peptide infusion. The class given is in vivo. Particulars: adult mice. Here is the method:
In addition, treated mouse brain frontal sections were prepared, as described in example 4 above, in order to determine the influence of the RK-Otx2 peptide on parvalbumin neurons. The sections were labeled either with WFA, as described in example 3, or using a mouse anti-parvalbumin monoclonal antibody ( 1/500, Sigma-Aldrich), which was visualized using a donkey anti-mouse antibody labeled with Cy3. The labeled cells were quantified as described in example 4.

In data set [9] the test system is GAGs of the perineuronal net associated with parvalbumin neurons. The data set is described as follows: Chondroitinase ABC treatment of adult mouse brain sections: WFA labeling and AP fusion protein binding. Particulars: brain sections incubated 24 hours with chondroitinase ABC 2 U/ml. Here is the method:
In order to determine whether the perineuronal net associated with parvalbumin neurons was involved in the binding between AP-Nt-Otx2 and its target cells, the binding of AP-Otx2 was tested on cryostat sections of adult mouse brains fixed with methanol, and then incubated for 24 hours in the presence of chondroitinase ABC (2 U/ml) in a buffer containing 50 mM Tris [pH 8.0], 40 mM of sodium acetate, 0.1% BSA and protease inhibitors. In parallel, the sections, untreated or treated with chondroitinase ABC, were incubated with 0.01 mg/ml of Wisteria floribunda agglutinin lectin (WFA; Sigma-Aldrich), which binds to the GAGs of the perineuronal net, and which is labeled with FITC.

In the case of `CN[C@H](CC(=O)O)C(=O)O` [NMDA, N-methyl-D-aspartate, reference compound], in data set [1] (1 μl of 1 mM NMDA alone into right eye, Brn3A mRNA), the “decrease in the amount of ganglion neurons” value is given as “approximately 60%”.
As to “AAQRRERTTFTRAQL (Targeting peptide inactive mutant) [AA-Otx2]”, in [2], the “blocking of the binding of AP-Nt-Otx2 to the bipolar cells and ganglion cells” value is given as “has no effect on this binding”. Besides, in data set [3], the “number of cells expressing Otx2” value was “only a small, insignificant reduction”.
As for “Otx2: Orthodenticle homolog 2, homeoprotein containing a bicoid-type homeodomain”, the “blocking of the binding of AP-Nt-Otx2 to its cortical target cells” value in data set [4] is “block the binding of AP-Nt-Otx2 to its target cells”. The “protection of retinal ganglion neurons against the toxic effects of NMDA” value in data set [5] is “protects retinal ganglion neurons against the toxic effects of N-methyl-D-aspartate (NMDA)”.
Consider “RKQRRERTTFTRAQL (also: biotin (position not given here)) [RK-Otx2]”, for which the “blocking of the binding of AP-Nt-Otx2 to the bipolar cells and ganglion cells” value in data set [2] was “blocks the binding of AP-Nt-Otx2 to the bipolar cells and to the ganglion cells”. The “binding to retinal cells” value in data set [6] was “has the same binding specificity as the AP-Otx2 and AP-Nt-Otx2 fusion proteins; also recorded: binds, like AP-Nt-Otx2, to the ganglion and bipolar cells”. Further, the “blocking of the binding of AP-Nt-Otx2 to its cortical target cells” value in [4] is listed as “block the binding of AP-Nt-Otx2 to its target cells”. Also, in data set [3] (8 days after the end of infusion), the “amount of peptide detected in the visual cortex” value is “only very small amounts”. The “number of cells expressing Otx2 in the treated hemisphere” value in data set [3] (8 days after the end of the infusion) is “restored to the level of that of the control hemisphere”. Moreover, the “number of cells expressing Otx2” value in data set [3] is reported as “significantly reduces the number of cells expressing Otx2”. Besides, in data set [7], the “ocular dominance induced by monocular deprivation” value is “induces an ocular dominance”. The “contralateral bias index (CBI)” value in [7] (after peptide infusion and 4 days monocular deprivation, decrease from 0.7) came to 0.57. Also, the “expression of the sites for the binding of WFA and of parvalbumin” value in data set [8] (after peptide infusion) was “decreases the expression of the sites for the binding of WFA, and also that for parvalbumin”. In [8] (infused vs control hemisphere), the “decrease in the number of cells surrounded by sites for the binding of WFA” value came to 51.3% and the “decrease in the number of parvalbumin-positive cells” value is reported as 56.2%.
Regarding “chimeric polypeptide: amino acids 1-97 of Otx2 (N-terminal domain and homeodomain) fused with the VP16 trans-activator domain of the herpes virus (SEQ ID NO: 4) (MLGDGDSPGPGFTPHDSAPYGALDMADFEFEQMFTDALGIDEYGG; VP16 transactivator domain)”, the “protection of ganglion neurons against the toxic effects of NMDA (Brn3A mRNA ratio right eye/left eye)” value in [1] (1 μl into right eye, 1 mM NMDA plus 30 ng chimeric polypeptide) is “effectively protects the ganglion neurons against the toxic effects of the NMDA”.
In the case of chondroitinase ABC, in data set [9], the “effect of chondroitinase ABC treatment on binding of the AP fusion protein” value is “abolishes the binding of AP-Nt-Otx2” and the “effect on GAGs of the perineuronal net (WFA labeling)” value was “destroys the GAGs of the perineuronal net”. In [7], the “ocular dominance induced by monocular deprivation” value is given as “as in those treated with the chondroitinase ABC”.
